According to patent US20180312493A1, “Antibiotic Compounds, Pharmaceutical Formulations Thereof And Methods And Uses Therefor” (Simon Fraser University, priority 2015, published 2018):
Values after ≈ are worked out from the molar mass of the structure shown. Where a name gives a salt, the structure may show the parent alone. Read-outs that look alike come from different tables or passages of the source.

What was measured:
S. aureus (ATCC29213) = test: In vitro susceptibility, broth microdilution (MIC); type: cell-based; conditions: Staphylococcus aureus
How it was run: (§1)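 CLSI 2-fold serial broth microdilution; K. pneumoniae C238 grown in L-broth, S. aureus ATCC 29213 in Mueller Hinton broth, plates incubated 18–24 h at 37 °C. MIC taken as lowest concentration giving complete growth inhibition by OD600 versus compound-free wells, background-subtracted.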

K. pneumoniae (C238) = test: In vitro susceptibility, broth microdilution (MIC); type: cell-based; conditions: Klebsiella pneumoniae, read-out: Antimicrobial activity (MIC) K. pneumoniae
How it was run: as §1

VRE#2 (2010A) = test: In vitro susceptibility, broth microdilution (MIC); type: cell-based, vancomycin resistant Enterococci; conditions: read-out: Antimicrobial activity (MIC) VRE#2
How it was run: (§2)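 MIC determined by CLSI 2-fold broth microdilution in cation-adjusted Mueller–Hinton broth at ~2.5×10^5 CFU/ml, final compound 0.031–64 μg/ml, 18–24 h at 37 °C. MIC is the lowest concentration giving complete growth inhibition by background-corrected OD600 versus compound-free wells; duplicate or triplicate wells, replicated at least twice.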

[1] = test system: A. baumannii (ATCC 17978); test: In vitro susceptibility, broth microdilution (MIC); type: cell-based; conditions: Acinetobacter baumannii
How it was run: as §2

MRSA Pyk = target: T1, MRSA Pyk (Staphylococcus aureus, UniProt Q6GG09); test: MRSA pyruvate kinase (PK) activity, continuous LDH-coupled assay; type: biochemical, methicillin resistant S. aureus (MRSA252)
T1 construct: made in house; host or cells: E. coli BL-21 (DE3)
T1 sequence (Q6GG09 whole entry): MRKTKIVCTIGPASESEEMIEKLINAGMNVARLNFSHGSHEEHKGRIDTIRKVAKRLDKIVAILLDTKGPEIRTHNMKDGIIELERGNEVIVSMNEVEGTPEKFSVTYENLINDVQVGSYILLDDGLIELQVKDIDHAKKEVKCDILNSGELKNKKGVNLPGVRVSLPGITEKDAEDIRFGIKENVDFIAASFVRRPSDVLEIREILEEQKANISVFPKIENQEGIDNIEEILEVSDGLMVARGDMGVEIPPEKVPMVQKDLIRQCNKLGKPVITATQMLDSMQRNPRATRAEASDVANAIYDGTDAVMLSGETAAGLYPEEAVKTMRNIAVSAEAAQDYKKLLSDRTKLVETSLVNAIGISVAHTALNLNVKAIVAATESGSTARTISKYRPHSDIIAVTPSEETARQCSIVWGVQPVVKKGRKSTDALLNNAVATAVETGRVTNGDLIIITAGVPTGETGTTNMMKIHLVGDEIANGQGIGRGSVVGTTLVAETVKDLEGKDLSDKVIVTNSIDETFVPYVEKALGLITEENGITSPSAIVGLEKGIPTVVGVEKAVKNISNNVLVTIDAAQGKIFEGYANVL
How it was run: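 Activity monitored continuously as absorbance change at 340 nm from NADH oxidation via coupled lactate dehydrogenase, reactions started with 15 nM recombinant His-tagged PK (MRSA or human isoform) and run at 30° C for up to 5 min. Ki derived by varying inhibitor (0-400 nM) and PEP (2-20 mM) at 2 mM ADP; IC50 by four-parameter fitting.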

MRSA MW2 (USA400) = test: In vitro susceptibility, broth microdilution (MIC); type: cell-based, methicillin resistant S. aureus; conditions: Staphylococcus aureus, read-out: Antimicrobial activity (MIC) MSRA USA400
How it was run: as §2

S. aureus ATCC 29123 = test: Thigh infection model in neutropenic mice; type: in vivo, female CD-1 mice; conditions: thigh muscle, 10 mg/kg IV BID (2 and 8 h post-infection), 24 hr post infection
Protocol: The antimicrobial activity of compounds 23 and 60 against S. aureus ATCC 29123 was tested in vivo using a thigh infection model in neutropenic mice. Briefly, animals (female CD-1 mice, 5 weeks of age) were made neutropenic prior to S. aureus thigh infection by pre-treating with cyclophosphamide (150 mg/kg, IP, −4 and −1 days pre-inoculation). On the inoculation day (day 0), mice were infected with S. aureus at time zero (t=0). Animals were individually monitored for adverse reactions for 30 min post-infection.
Compounds 23 and 60 were prepared for IV administration and for oral administration. Vancomycin was administered as a solution in PBS. The test compounds were administered at 2 and 8 hours post-infection and animals were individually monitored for adverse reactions for 30 min after each injection. All animals were then monitored hourly from 20 hours post infection to the endpoint (t=24 hr post infection). At the indicated timepoint, animals were sacrificed and the injected thigh collected.
Quantitative enumeration of bacterial load was determined by plating serial dilutions from homogenized thigh muscles. The plates were incubated and colony counts were determined. CFU per mL calculated was calculated.

[2] = test system: S. typhimurium (ATCC BAA-185); test: In vitro susceptibility, broth microdilution (MIC); type: cell-based; conditions: Salmonella enterica, read-out: Antimicrobial activity (MIC) S. typhimurium
How it was run: as §2

[3] = test system: A. baumannii (ATCC 19606); test: In vitro susceptibility, broth microdilution (MIC); type: cell-based; conditions: Acinetobacter baumannii, ATCC19606; A. baumannii ATCC 19606 (values without asterisk); read-out: Antimicrobial activity (MIC) A. baumannii
How it was run: as §2

MRSA (ATCC BAA-1762) = test: In vitro susceptibility, broth microdilution (MIC); type: cell-based, methicillin resistant S. aureus; conditions: Staphylococcus aureus; MRSA ATCC BAA-1762; read-out: Antimicrobial activity (MIC) MRSA ATCC BAA1762
How it was run: as §2

[4] = Mammalian cytotoxicity, CellTiter 96 AQueous One (MTS); type: cell-based; conditions: human, HeLa 229 cells, positive control
Protocol: The cytotoxic activities of compounds were determined for HeLa cells 229 (ATCC:CCL-2-.1) in microtiter cultures by measuring dehydrogenase activity using CellTiter 96® AQueous One Solution Cell Proliferation Assay™ (Promega™, Madison, Wis., USA), according to the manufacturer's protocol. Freshly split cells were seeded into microtiter wells (2×10^4/well) and grown for 24 hours. The original media was then removed and replaced with media containing the desired concentration of compound or solvent control (i.e., DMSO). Plates were incubated for 24 h at 37° C. in a humidified incubator with a 5% CO2 atmosphere. At the end of the growth period, cells were lysed by the addition of 20 μl of Cell Titer 96 Aqueous One™ solution, and the incubation was continued for another 3 h at 37° C. Production of formazan was determined at 490 nm on Benchmark Plus™ microplate spectrophotometer (Bio-Rad™). To control for intrinsic absorbance, control series containing inhibitor dilutions but no cells were run for every experiment and the resulting absorbance values were subtracted as background from the experimental readings. Growth in compound-free control wells was considered as 100% and percentage of growth inhibition was calculated for each compound concentration. Cytotoxicity was quantified as the CC50, the concentration of compound that inhibited 50% of conversion of MTS to formazan. […]

[5] = S. aureus ATCC29213, 18-24 h, 37 C, read-out: Antimicrobial activity (MIC) S. aureus ATCC29213
[6] = ATCC17978, A. baumannii ATCC 17978 (values marked *), read-out: Antimicrobial activity (MIC) A. baumannii

`CN(C)CCC(=O)c1c(/C=C/c2ccc(Cl)cc2)[nH]c2cc(Br)ccc12.Cl` [Compound 6, (E)-1-(6-Bromo-2-(4-chlorostyryl)-1H-indol-3-yl)-3-(dimethylamino)propan-1-one Hydrochloride] gave an MIC (S. aureus (ATCC29213); [5]) of 8 µg/mL, an MIC (K. pneumoniae (C238)) of 8 µg/mL and an MIC (VRE#2 (2010A); VRE#2 (2010A)) of 8 µg/mL. It also gave an MIC [1, 6] of 64 µg/mL, an IC50 (MRSA Pyk) of 100 to 1000 nM and an MIC (MRSA MW2 (USA400); MRSA MW2 (USA400)) of 8 µg/mL.
For `CN1CCN(CCC(=O)c2c(/C=C/c3ccc(Cl)cc3)[nH]c3cc(Br)ccc23)CC1` [Compound 7, (E)-1-(6-Bromo-2-(4-chlorostyryl)-1H-indol-3-yl)-3-(4-methylpiperazin-1-yl)propan-1-one Hydrochloride], the MIC (S. aureus (ATCC29213); ATCC29213, read-out: Antimicrobial activity (MIC) S. aureus ATCC29213) was 8 µg/mL, the MIC (K. pneumoniae (C238)) was 8 µg/mL and the MIC (VRE#2 (2010A)) was 8 µg/mL. It also gave an MIC ([1]; ATCC17978, read-out: Antimicrobial activity (MIC) A. baumannii) of over 64 µg/mL, an IC50 (MRSA Pyk) of 100 to 1000 nM and an MIC (MRSA MW2 (USA400)) of 8 µg/mL.
With `CN(C)CCNC(=O)c1c(/C=C/c2ccc(Cl)cc2)[nH]c2cc(Br)ccc12` [Compound 23, (E)-6-Bromo-2-(4-chlorostyryl)-N-(2-(dimethylamino)ethyl)-1H-indole-3-carboxamide] the MIC (S. aureus (ATCC29213); [5]) was 8 µg/mL (≈ 17.9 µM), the “reduction in CFU” value (S. aureus ATCC 29123) was 3 log and the IC50 (MRSA Pyk) was under 100 nM.
For `CN1CCN(CCOC(=O)c2c(/C=C/c3ccc(Cl)cc3)[nH]c3cc(Br)ccc23)CC1` [Compound 61, 2-(4-Methylpiperazin-1-yl)ethyl (E)-6-bromo-2-(4-chlorostyryl)-1H-indole-3-carboxylate], the MIC (S. aureus (ATCC29213); [5]) was 4 µg/mL (≈ 7.95 µM), the MIC (K. pneumoniae (C238); K. pneumoniae (C238)) was 4 µg/mL (≈ 7.95 µM) and the MIC (VRE#2 (2010A); VRE#2 (2010A)) was 4 µg/mL (≈ 7.95 µM). For the same compound, the MIC [1, 6] was over 64 µg/mL, the IC50 (MRSA Pyk) was 100 to 1000 nM and the MIC (MRSA MW2 (USA400); MRSA MW2 (USA400)) was 4 µg/mL (≈ 7.95 µM).
Work on `O=C(O)CCCC(=O)c1c(-c2cc3cc(Cl)ccc3[nH]2)[nH]c2cc(Br)ccc12` [Compound 102, 5-(6-bromo-5′-chloro-1H,1′H-[2,2′-biindol]-3-yl)-5-oxopentanoic Acid] yielded an MIC (S. aureus (ATCC29213); [5]) of 8 µg/mL (≈ 17.4 µM), an MIC (K. pneumoniae (C238); K. pneumoniae (C238)) of 16 µg/mL (≈ 34.8 µM) and an MIC (VRE#2 (2010A); VRE#2 (2010A)) of 16 µg/mL (≈ 34.8 µM). For the same compound, the MIC [2] was 8 µg/mL (≈ 17.4 µM), the IC50 (MRSA Pyk) was under 100 nM and the MIC (MRSA MW2 (USA400); MRSA MW2 (USA400)) was 8 µg/mL (≈ 17.4 µM).
`CN(C)CCOc1cc2[nH]c(-c3cc4ccc(Br)cc4[nH]3)cc2cc1Cl` [Compound 199, 2-((6′-Bromo-5-chloro-1H,1′H-[2,2′-biindol]-6-yl)oxy)-N,N-dimethylethan-1-amine] showed an MIC (S. aureus (ATCC29213); [5]) of 4 µg/mL (≈ 9.24 µM), an MIC (VRE#2 (2010A); VRE#2 (2010A)) of 4 µg/mL (≈ 9.24 µM) and an MIC [3] of 8 µg/mL (≈ 18.5 µM). For the same compound, the MIC [2] was 32 µg/mL (≈ 73.9 µM), the IC50 (MRSA Pyk) was under 100 nM and the MIC (MRSA (ATCC BAA-1762)) was 4 µg/mL (≈ 9.24 µM).
`COc1cc(O)c(CC=C(C)C)c(O)c1C(=O)/C=C/c1ccc(O)cc1` [xanthohumol] showed a CC50 at 24 h [4] of about 9 µg/mL (≈ 25.4 µM).
